We go through 2 molecules from patent US4668677A, “4-phenylphthalazine derivatives, their preparation and their use as pharmaceuticals” (Mitsubishi Chemical Industries Limited, priority 1984, dated 1987).

The test system of assay [1] is PGI2-like substance in vessel walls. Nature of the assay: Influence on production of PGI2-like substance in vessel walls (ADP aggregation with carotid artery ring). As to conditions: 1 hour, 10 μM ADP. Type of assay: in vivo, rat (male Wistar-ST strain). The procedure: Male Wistar-ST strain rats with an average weight of about 250 g were used as experimental animals. After fasted for 18 hours, 6.3 ml of blood sample were obtained from corotid artery and immediately thereafter 0.7 ml of an anticoagulant (3.8% sodium citrate) was added and the sample was centrifuged at 200×g over 15 minutes to take platelet-rich plasma (PRP). The same procedures as above were carried out, using 5 to 6 rats, whereby 5-6 ml as normal PRP were stored and employed.
Reference aggregation values were determined by pouring 1 ml each of stored PRP into plastic test tubes, incubating them at 22° C. for 10 minutes and then determining aggregation rate. As an aggregation inducing agent, one employed 10 μM ADP (available from Sigma Co., Inc.)
A suspension of the compound of this invention or aspirin in a 1% aqueous solution of tragacanth was orally given to animals. After 1 hour, 5 mg of carotid artery were cut out in a ring shape and placed into a plastic test tube together with 1 ml of stored PRP. After incubated at 22° C. for 10 minutes, aggregation rate was determined.
Also, non-medicated groups were similarly treated and aggregation rate was determined.
Determination of blood platelet aggregation rate was made by means of an aggregometer.

The test system of assay [2] is femoral artery. Nature of the assay: Blood pressure in femoral artery, coronary blood flow test. The class given is in vivo, dog (mongrel adult dog). The procedure:
(§1) The compound of this invention was dissolved in an aqueous solution containing 1% tartaric acid and 1% dimethylacetamide, while papaverine hydrochloride dissolved in 0.9% physiological saline. These test compounds were intravenously given through a residual polyethylene tube within femoral vein.
(§2) A mongrel adult dog was anesthetized with pentobarbital sodium and then underwent thoracotomy under artificial respiration. After cardiac membrane was removed, the origin of branches in left coronary artery was removed from its peripheral tissues and blood flow volume of coronary artery was measured via the probe for determining blood flow which was attached to said origin. Simultaneously, blood pressure in femoral artery was measured. Preparation and administration of test compounds were carried out in the same manner as in the above item (6).

Assay [3] relates to Thoracic aorta. The assay is described as follows: Calcium antagonistic activity (relaxation of thoracic aorta). Type of assay: cell-based, rat (male Wistar strain). The settings on record: Rattus norvegicus, 10 mM CaCl2. Here is the method: Thoracic aorta was removed from male Wistar strain rats with a body weight of 350 g to 450 g and then spiral-shaped pieces of aorta were prepared therefrom. […] Thereafter, samples were further stabilized in Krebs-Henseleit solution containing no CaCl2 over 1 hour and then in a 80 mM KCl nutritive liquid wherein NaCl was exchanged with an equimolar KCl (depolarized liquid) over a further one hour. Then, samples were washed with the depolarized liquid and loaded with a static tension of 1.0 g. When CaCl2 was added to the nutritive liquid so as to reach a final concentration of 10 mM, tension was produced in samples and, after 15-20 minutes from the addition of CaCl2, the maximum tension was obtained. At this point, test compounds were applied and relaxing activity of test compounds was evaluated. Tension was determined in equal dimension.
Relaxation rate was calculated according to the following equation: [formula] A: Maximum tension generated B: Generated tension retained after administration of test compound
All test compounds were given in the form of a solution in dimethyl sulfoxide at a dose of 0.1 ml, whereupon a final concentration of dimethyl sulfoxide itself was adjusted to 0.5 V/V %.

Assay [4] deals with cerebral cortex. Nature of the assay: Activity to increase topical cerebral blood flow, cerebral cortex (heat clearance method). Type of assay: in vivo, rabbit (male New Zealand White). As to conditions: change in blood flow expressed in terms of voltage. Here is the method:
as §1
(§3) Physiol. Scand., 67, 1 (1966); "Kokyu to Junkan" (in Japanese), 15, 435 (1967); the Journal of the Pharmacological Society of Japan, 71, 709 (1975)]. Simultaneously, blood pressure in femoral artery was also determined. Preparation and administration of test compounds were carried out in the same manner as in the above item (6).

Assay [5] deals with coronary artery. Nature of the assay: Activity to increase blood flow volume in coronary artery. Type of assay: in vivo, dog (mongrel adult dog). Here is the method:
as §1, §2

For assay [6], the system named is femoral artery. The assay is described as follows: Blood pressure in femoral artery, topical cerebral blood flow test. Type of assay: in vivo, rabbit (male New Zealand White). The procedure:
as §1, §3

Assay [7] has as its system candate nucleus. The assay is described as follows: Activity to increase topical cerebral blood flow, candate nucleus (heat clearance method). The class given is in vivo, rabbit (male New Zealand White). As to conditions: change in blood flow expressed in terms of voltage. The procedure:
as §1, §3

In assay [8] the test system is blood platelets. The assay is described as follows: Activity to inhibit the blood platelet adhesion (glass bead method). The class given is cell-based, rat (male Wistar-ST strain). The settings on record: Rattus norvegicus, read-out: Inhibitory rate of blood platelet adhesion. Here is the method:
As experimental animals, there were used male Wistar-ST strain rats of an average body weight of 250 g.
Blood samples were obained from carotid arteries by means of a cannule and immediately admixed with sodium citrate at a volume ratio of 1/10. The mixture was centrifuged at 200×g over 15 minutes to collect the supernatant (platelet-rich plasma: PRP). The PRP was then centrifuged at 2000×g over 15 minutes and the supernatant was removed to give blood platelet pellet.
To the resultant blood platelet pellet was added a 15 mM tris.HCl buffer solution with EDTA (pH 7.4) to resuspend blood platelets therein and then one applied centrifugation at 2000×g over 15 minutes and the supernatant was removed. The resultant washed blood platelets were added to a 0.3 mM tris.HCl buffer solution with CaCl2 (pH 7.4) to resuspend blood platelets therein, whereby there was prepared a blood platelet suspension adjusted to five hundred thousand platelets/μl. To 2 ml of the blood platelet suspension were added 2 μl of a methanolic solution of each test compound and incubation was effected for 15 minutes. Then blood platelet adhesion was determined according to a glass bead method by using a timing blood suction apparatus for determining the blood platelet adhesion.
The number of blood platelets was counted by means of a blood platelet counter.
Inhibitory rate of blood platelet adhesion was calculated according to the following equation: [formula] A: Blood platelet number in the blood platelet suspension passed through a control column
B: Blood platelet number in the blood platelet suspension passed through a bead-packing column

Regarding `CCC(CC)Nc1nnc(-c2ccccc2)c2ccccc12` [Compound 2, 1-(1-ethylpropylamino)-4-phenylphthalazine], the “Aggregation rate with ADP when carotid artery ring added” value in assay [1] (3 mg/Kg oral) came to 0.0%; in assay [1] (10 mg/Kg oral) it was 7.7%; in assay [1] (30 mg/Kg oral), 1.3%; in assay [1] (100 mg/Kg oral) it was 23.3%.

Regarding `CC(C)(C)CNc1nnc(-c2ccccc2)c2ccccc12` [Compound 1, 1-neopentylamino-4-phenylphthalazine], the “Lowering of blood pressure in femoral artery” value came to 17.6% in assay [2] (0.1 mg/Kg), 29.4% in assay [2] (0.3 mg/Kg), 18.2 ± 0.98% in assay [6] (0.3 mg/Kg i.v.) and 30.8 ± 3.2% in assay [6] (1 mg/Kg i.v.). Moreover, the inhibition at 3 µM in assay [3] (final concentration 3 μM) amounted to 8.5%; in assay [8] (3·10^-6 M), 12.5%. For the same molecule, the inhibition at 10 µM in assay [3] (final concentration 10 μM) was 30%. For the same molecule, the “Increase in topical blood flow volume, Cerebral cortex” value in assay [4] (0.3 mg/Kg i.v.) is on record as 1.03 ± 0.12 Δ μV; in assay [4] (1 mg/Kg i.v.), 2.05 ± 0.29 Δ μV. Besides, the entries for the “Blood flow volume in coronery artery, After administration” value in assay [5] (0.1 mg/Kg) and in assay [5] (0.3 mg/Kg) were 28.8 mL/min and 37.5 mL/min, respectively. Moreover, the “Blood flow volume in coronery artery, Before administration” value in assay [5] (0.1 mg/Kg) and in assay [5] (0.3 mg/Kg) was 18.8 mL/min each time. For the same molecule, the entries for the “Blood flow volume in coronery artery, Increase rate” value in assay [5] (0.1 mg/Kg) and in assay [5] (0.3 mg/Kg) were 53.2% and 99.5%, respectively. Further, the “Aggregation rate with ADP when carotid artery ring added” value in assay [1] (3 mg/Kg oral) is recorded as 2.7%; in assay [1] (10 mg/Kg oral), 17.7%; in assay [1] (30 mg/Kg oral), 10.0%. The “Increase in topical blood flow volume, Candate nucleus” value in assay [7] (0.3 mg/Kg i.v.) is on record as 0.63 ± 0.08 Δ μV; in assay [7] (1 mg/Kg i.v.), 0.85 ± 0.25 Δ μV. In assay [8] (3·10^-4 M), the inhibition at 300 µM is 50.2%. In addition, the inhibition at 30 µM in assay [8] (3·10^-5 M) was determined as 40.8%. Further, the inhibition at 0.3 µM in assay [8] (3·10^-7 M) is 8.2%.
